# From paper PMC8799717, “Pharmacological targeting PIKfyve and tubulin as an effective treatment strategy for double-hit lymphoma” (Cell Death Discovery, 2022)
# Experiments:
# Test in all cases: biochemical
# Design in all cases: KINOMEscan active-site-directed competition binding panel, 468 kinases, percent of DMSO control at 1 uM
# Conditions in all cases: KINOMEscan binding, percent of DMSO control; read-out: Ctrl%
# MTOR = MTOR (Homo sapiens, UniProt P42345)
# S6K1 = molecular target: T1, S6K1 (Homo sapiens, UniProt P23443)
# T1 construct: gene RPS6KB1
# FYN = FYN (Homo sapiens, UniProt P06241)
# MRCKB = molecular target: T2, MRCKB (Homo sapiens, UniProt Q9Y5S2)
# T2 construct: gene CDC42BPB
# PIP5K2B = molecular target: T3, PIP5K2B (Homo sapiens, UniProt P78356)
# T3 construct: gene PIP4K2B
# PKN2 = PKN2 (Homo sapiens, UniProt Q16513)
# PCTK3 = molecular target: T4, PCTK3 (Homo sapiens, UniProt Q07002)
# T4 construct: gene CDK18
# IRAK4 = IRAK4 (Homo sapiens, UniProt Q9NWZ3)
# CASK = CASK (Homo sapiens, UniProt O14936)
# BMPR1B = BMPR1B (Homo sapiens, UniProt O00238)
# CLK3 = CLK3 (Homo sapiens, UniProt P49761)
# CSNK1A1L = CSNK1A1L (Homo sapiens, UniProt Q8N752)
# [1] = molecular target: EGFR(L747-S752del, P753S) (Homo sapiens, UniProt P00533, DEL747-752/P753S)
# MAP3K1 = MAP3K1 (Homo sapiens, UniProt Q13233)
# RIPK1 = RIPK1 (Homo sapiens, UniProt Q13546)
# HUNK = HUNK (Homo sapiens, UniProt P57058)
# BMX = BMX (Homo sapiens, UniProt P51813)
# MELK = MELK (Homo sapiens, UniProt Q14680)
# TRKA = molecular target: T5, TRKA (Homo sapiens, UniProt P04629)
# T5 construct: gene NTRK1
# KIT-autoinhibited = KIT-autoinhibited (Homo sapiens, UniProt P10721)
# PIM3 = PIM3 (Homo sapiens, UniProt Q86V86)
# DRAK1 = molecular target: T6, DRAK1 (Homo sapiens, UniProt Q9UEE5)
# T6 construct: gene STK17A
# SRPK3 = SRPK3 (Homo sapiens, UniProt Q9UPE1)
# MAK = MAK (Homo sapiens, UniProt P20794)
# Chain of MAK (P20794 whole entry): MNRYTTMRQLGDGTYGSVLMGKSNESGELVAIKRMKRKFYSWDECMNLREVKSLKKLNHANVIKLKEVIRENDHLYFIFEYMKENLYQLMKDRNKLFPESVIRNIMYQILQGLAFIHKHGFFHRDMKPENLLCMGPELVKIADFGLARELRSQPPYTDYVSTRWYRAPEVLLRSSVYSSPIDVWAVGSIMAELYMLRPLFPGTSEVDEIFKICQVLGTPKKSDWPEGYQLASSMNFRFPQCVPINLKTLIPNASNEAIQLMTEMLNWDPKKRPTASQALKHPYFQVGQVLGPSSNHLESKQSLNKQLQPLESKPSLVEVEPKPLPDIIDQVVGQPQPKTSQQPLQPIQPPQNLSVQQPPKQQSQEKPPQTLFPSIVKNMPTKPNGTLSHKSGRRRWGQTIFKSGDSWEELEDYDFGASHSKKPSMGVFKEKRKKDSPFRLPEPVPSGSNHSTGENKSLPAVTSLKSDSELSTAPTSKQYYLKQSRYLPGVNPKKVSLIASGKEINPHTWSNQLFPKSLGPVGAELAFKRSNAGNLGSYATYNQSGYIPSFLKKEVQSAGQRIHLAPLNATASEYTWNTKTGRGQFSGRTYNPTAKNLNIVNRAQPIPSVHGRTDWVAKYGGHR
# Chain of BMX (P51813 whole entry): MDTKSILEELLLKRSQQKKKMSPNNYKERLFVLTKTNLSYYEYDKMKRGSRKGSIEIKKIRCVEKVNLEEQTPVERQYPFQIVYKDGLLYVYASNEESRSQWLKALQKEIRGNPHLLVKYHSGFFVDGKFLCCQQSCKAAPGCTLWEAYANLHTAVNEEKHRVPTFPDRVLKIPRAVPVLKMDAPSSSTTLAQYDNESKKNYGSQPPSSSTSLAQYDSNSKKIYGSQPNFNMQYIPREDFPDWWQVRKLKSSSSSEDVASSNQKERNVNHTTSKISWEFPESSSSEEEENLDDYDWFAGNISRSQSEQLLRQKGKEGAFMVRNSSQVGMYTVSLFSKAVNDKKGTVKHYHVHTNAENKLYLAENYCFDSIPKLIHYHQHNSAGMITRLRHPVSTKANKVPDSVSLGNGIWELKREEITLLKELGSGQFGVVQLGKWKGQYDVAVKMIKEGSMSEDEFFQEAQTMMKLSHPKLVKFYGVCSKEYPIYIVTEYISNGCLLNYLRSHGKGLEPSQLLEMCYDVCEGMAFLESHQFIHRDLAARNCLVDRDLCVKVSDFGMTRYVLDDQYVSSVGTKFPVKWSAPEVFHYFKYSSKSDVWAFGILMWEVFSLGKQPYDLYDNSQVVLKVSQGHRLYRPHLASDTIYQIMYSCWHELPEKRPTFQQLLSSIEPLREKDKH
# T5 sequence (P04629 whole entry): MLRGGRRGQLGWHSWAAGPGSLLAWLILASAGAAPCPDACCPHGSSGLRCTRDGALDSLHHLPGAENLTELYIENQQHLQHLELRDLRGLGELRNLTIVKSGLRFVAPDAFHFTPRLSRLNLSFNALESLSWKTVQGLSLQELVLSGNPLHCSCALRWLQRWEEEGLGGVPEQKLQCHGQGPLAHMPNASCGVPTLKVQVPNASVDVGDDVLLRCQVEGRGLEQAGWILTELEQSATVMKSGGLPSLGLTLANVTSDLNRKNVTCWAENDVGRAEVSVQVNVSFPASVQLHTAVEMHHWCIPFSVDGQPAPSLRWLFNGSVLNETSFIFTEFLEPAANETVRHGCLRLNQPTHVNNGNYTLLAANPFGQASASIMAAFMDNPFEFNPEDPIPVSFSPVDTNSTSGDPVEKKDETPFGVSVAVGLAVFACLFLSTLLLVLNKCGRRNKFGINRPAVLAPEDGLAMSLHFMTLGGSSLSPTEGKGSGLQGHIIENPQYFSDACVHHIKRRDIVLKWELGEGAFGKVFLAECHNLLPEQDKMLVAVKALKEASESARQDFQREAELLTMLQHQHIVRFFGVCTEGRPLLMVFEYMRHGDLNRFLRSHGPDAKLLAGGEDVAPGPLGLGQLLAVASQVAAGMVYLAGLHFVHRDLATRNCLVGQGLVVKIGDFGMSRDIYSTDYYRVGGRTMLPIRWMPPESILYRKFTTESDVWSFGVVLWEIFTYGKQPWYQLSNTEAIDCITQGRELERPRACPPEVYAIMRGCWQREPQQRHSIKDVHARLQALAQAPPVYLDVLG
# Chain of EGFR(L747-S752del, P753S) (P00533 with tags, fused parts or gaps DEL747-752/P753S): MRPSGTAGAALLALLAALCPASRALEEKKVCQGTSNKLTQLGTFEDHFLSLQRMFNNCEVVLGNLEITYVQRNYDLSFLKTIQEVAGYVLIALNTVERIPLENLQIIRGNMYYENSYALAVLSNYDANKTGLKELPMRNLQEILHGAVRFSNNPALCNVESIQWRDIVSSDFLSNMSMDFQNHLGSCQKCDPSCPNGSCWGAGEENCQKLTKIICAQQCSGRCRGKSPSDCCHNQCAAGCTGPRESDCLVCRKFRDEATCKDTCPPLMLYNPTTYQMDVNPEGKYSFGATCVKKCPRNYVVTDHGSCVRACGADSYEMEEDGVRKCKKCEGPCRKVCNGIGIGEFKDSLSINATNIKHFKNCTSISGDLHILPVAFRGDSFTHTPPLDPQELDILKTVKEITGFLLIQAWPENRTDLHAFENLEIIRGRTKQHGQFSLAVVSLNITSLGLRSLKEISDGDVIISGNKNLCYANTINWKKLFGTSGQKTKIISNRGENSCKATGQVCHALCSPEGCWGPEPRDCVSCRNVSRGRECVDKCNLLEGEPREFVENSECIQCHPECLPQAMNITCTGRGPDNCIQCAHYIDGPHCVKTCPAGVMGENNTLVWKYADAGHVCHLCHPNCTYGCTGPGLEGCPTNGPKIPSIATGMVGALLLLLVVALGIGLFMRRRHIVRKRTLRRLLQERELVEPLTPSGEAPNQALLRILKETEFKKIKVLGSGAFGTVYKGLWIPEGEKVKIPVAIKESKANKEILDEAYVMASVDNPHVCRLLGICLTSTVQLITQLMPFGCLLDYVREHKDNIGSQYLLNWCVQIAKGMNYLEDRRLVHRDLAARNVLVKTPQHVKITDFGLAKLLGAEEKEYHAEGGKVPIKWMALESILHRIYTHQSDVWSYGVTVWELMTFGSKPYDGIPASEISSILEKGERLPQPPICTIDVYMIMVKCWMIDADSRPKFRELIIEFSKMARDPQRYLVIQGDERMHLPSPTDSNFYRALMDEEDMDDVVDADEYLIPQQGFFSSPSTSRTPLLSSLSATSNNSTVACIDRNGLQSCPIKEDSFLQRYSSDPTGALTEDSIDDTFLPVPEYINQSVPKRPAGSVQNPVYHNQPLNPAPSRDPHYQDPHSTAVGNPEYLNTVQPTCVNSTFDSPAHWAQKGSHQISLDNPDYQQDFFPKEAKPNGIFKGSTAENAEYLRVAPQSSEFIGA
# Chain of CSNK1A1L (Q8N752 whole entry): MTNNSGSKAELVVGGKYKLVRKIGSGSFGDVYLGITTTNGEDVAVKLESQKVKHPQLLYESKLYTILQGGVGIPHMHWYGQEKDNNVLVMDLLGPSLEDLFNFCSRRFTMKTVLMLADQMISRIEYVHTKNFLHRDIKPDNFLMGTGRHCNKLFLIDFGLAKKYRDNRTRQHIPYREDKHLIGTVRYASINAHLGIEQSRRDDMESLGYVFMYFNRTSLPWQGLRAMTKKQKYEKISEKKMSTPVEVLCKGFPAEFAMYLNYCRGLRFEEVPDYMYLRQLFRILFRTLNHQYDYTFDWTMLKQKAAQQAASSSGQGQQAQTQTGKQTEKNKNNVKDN
# Chain of MELK (Q14680 whole entry): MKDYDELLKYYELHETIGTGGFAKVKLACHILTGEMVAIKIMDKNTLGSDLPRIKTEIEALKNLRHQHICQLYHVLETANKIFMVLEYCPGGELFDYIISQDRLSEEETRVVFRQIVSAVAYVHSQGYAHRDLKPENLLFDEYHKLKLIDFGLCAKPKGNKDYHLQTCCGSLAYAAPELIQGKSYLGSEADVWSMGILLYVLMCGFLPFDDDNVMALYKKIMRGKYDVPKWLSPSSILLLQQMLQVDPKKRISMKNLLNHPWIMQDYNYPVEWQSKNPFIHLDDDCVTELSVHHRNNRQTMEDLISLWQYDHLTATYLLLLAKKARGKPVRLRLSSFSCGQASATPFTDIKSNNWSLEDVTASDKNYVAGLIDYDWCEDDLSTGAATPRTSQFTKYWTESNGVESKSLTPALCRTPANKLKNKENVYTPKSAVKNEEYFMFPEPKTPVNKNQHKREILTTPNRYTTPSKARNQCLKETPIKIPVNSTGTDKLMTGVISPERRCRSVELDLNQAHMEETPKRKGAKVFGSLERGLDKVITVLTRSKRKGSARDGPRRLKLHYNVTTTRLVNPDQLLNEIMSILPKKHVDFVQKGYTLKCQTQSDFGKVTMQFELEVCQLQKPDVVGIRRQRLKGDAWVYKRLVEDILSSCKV
# Chain of HUNK (P57058 whole entry): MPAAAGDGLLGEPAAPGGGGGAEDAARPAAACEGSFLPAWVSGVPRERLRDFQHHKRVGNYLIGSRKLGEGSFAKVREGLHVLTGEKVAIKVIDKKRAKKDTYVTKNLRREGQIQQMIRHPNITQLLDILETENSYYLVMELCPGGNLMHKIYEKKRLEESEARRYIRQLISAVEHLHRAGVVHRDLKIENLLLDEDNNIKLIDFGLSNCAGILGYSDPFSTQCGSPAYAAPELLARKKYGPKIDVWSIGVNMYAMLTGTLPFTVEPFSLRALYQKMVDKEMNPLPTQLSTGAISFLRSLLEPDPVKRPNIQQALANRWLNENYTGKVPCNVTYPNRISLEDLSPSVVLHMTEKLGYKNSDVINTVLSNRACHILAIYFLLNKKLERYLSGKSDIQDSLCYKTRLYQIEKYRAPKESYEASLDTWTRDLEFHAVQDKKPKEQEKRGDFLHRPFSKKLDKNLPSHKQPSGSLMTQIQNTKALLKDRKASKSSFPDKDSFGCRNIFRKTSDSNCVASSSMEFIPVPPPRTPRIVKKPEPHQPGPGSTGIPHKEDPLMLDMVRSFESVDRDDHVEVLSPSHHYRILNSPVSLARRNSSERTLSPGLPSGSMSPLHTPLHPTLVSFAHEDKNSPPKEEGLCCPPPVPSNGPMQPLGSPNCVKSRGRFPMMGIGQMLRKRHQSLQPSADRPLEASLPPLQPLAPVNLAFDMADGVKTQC
smiles,measurement,setting,value
Cc1ccc(NC(=O)c2cccc(C(F)(F)F)c2)cc1Nc1cc(-c2cccnc2)nc2[nH]ccc12 [HZX-02-059],remaining binding at 1 µM,MTOR,99%
same,remaining binding at 1 µM,S6K1,95%
same,remaining binding at 1 µM,FYN,85%
same,remaining binding at 1 µM,MRCKB,100%
same,remaining binding at 1 µM,PIP5K2B,76%
same,remaining binding at 1 µM,PKN2,100%
same,remaining binding at 1 µM,PCTK3,84%
same,remaining binding at 1 µM,IRAK4,100%
same,remaining binding at 1 µM,CASK,92%
same,remaining binding at 1 µM,BMPR1B,91%
same,remaining binding at 1 µM,CLK3,82%
same,remaining binding at 1 µM,CSNK1A1L,92%
same,remaining binding at 1 µM,[1],80%
same,remaining binding at 1 µM,MAP3K1,56%
same,remaining binding at 1 µM,RIPK1,100%
same,remaining binding at 1 µM,HUNK,91%
same,remaining binding at 1 µM,BMX,80%
same,remaining binding at 1 µM,MELK,96%
same,remaining binding at 1 µM,TRKA,100%
same,remaining binding at 1 µM,KIT-autoinhibited,88%
same,remaining binding at 1 µM,PIM3,89%
same,remaining binding at 1 µM,DRAK1,83%
same,remaining binding at 1 µM,SRPK3,93%
same,remaining binding at 1 µM,MAK,95%
